Source: PubChem BioAssay (NCI)
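Each compound was tested at five concentrations against cells in 96-well plates for 48 hours. At the GI50, growth is halved. TGI marks complete inhibition of growth.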

Tests used:
Test in all cases: NCI tumour cell line growth inhibition, 48 h
NCI-H460 lung = tested on: NCI-H460 lung
K-562 leukemia = tested on: K-562 leukemia
NCI-H23 lung = tested on: NCI-H23 lung
SK-MEL-2 melanoma = tested on: SK-MEL-2 melanoma
SF-295 CNS = tested on: SF-295 CNS
NCI-H226 lung = tested on: NCI-H226 lung
UACC-257 melanoma = tested on: UACC-257 melanoma
IGROV1 ovarian = tested on: IGROV1 ovarian
U251 CNS = tested on: U251 CNS
DU-145 prostate = tested on: DU-145 prostate
HS 578T breast = tested on: HS 578T breast
COLO 205 colon = tested on: COLO 205 colon
CCRF-CEM leukemia = tested on: CCRF-CEM leukemia
SW-620 colon = tested on: SW-620 colon
MDA-MB-435 = tested on: MDA-MB-435
SF-539 CNS = tested on: SF-539 CNS
UACC-62 melanoma = tested on: UACC-62 melanoma
UO-31 renal = tested on: UO-31 renal
HOP-92 NSCLC = tested on: HOP-92 NSCLC
SK-MEL-5 melanoma = tested on: SK-MEL-5 melanoma
HCT-15 colon = tested on: HCT-15 colon
A498 renal = tested on: A498 renal
NCI/ADR-RES ovarian = tested on: NCI/ADR-RES ovarian
PC-3 prostate = tested on: PC-3 prostate
SF-268 CNS = tested on: SF-268 CNS
NCI-H522 lung = tested on: NCI-H522 lung
BT-549 breast = tested on: BT-549 breast
OVCAR-4 ovarian = tested on: OVCAR-4 ovarian
RXF 393 renal = tested on: RXF 393 renal
HCT-116 colon = tested on: HCT-116 colon
HT29 colon = tested on: HT29 colon
KM12 colon = tested on: KM12 colon
HOP-62 NSCLC = tested on: HOP-62 NSCLC
MCF7 breast = tested on: MCF7 breast
CAKI-1 renal = tested on: CAKI-1 renal
SNB-75 CNS = tested on: SNB-75 CNS
SR leukemia = tested on: SR leukemia
T-47D breast = tested on: T-47D breast
OVCAR-3 ovarian = tested on: OVCAR-3 ovarian
SK-OV-3 ovarian = tested on: SK-OV-3 ovarian
A549 NSCLC = tested on: A549 NSCLC
RPMI-8226 leukemia = tested on: RPMI-8226 leukemia
M14 melanoma = tested on: M14 melanoma
SN12C renal = tested on: SN12C renal
MOLT-4 leukemia = tested on: MOLT-4 leukemia
SK-MEL-28 melanoma = tested on: SK-MEL-28 melanoma
ACHN renal = tested on: ACHN renal
LOX IMVI melanoma = tested on: LOX IMVI melanoma
OVCAR-5 ovarian = tested on: OVCAR-5 ovarian
MDA-MB-231 breast = tested on: MDA-MB-231 breast
SNB-19 CNS = tested on: SNB-19 CNS
OVCAR-8 ovarian = tested on: OVCAR-8 ovarian
HCC-2998 colon = tested on: HCC-2998 colon
786-0 renal = tested on: 786-0 renal
MALME-3M melanoma = tested on: MALME-3M melanoma
TK-10 renal = tested on: TK-10 renal

Question: What does the source list for `O=C(Nc1ccc(OCc2nnc(-c3ccc(Cl)cc3)o2)c(F)c1)Nc1ccc(Cl)c(Cl)c1`?
Answer: GI50 (NCI-H460 lung): 3.9 µM; TGI (NCI-H460 lung): 25 µM; GI50 (K-562 leukemia): 3.77 µM; TGI (K-562 leukemia): > 100 µM; GI50 (NCI-H23 lung): 4.62 µM; TGI (NCI-H23 lung): 20.6 µM; GI50 (SK-MEL-2 melanoma): 9.23 µM; TGI (SK-MEL-2 melanoma): 37 µM; GI50 (SF-295 CNS): 3.63 µM; TGI (SF-295 CNS): 19.5 µM; GI50 (NCI-H226 lung): 5.94 µM; TGI (NCI-H226 lung): 56.1 µM; GI50 (UACC-257 melanoma): 10.6 µM; TGI (UACC-257 melanoma): > 100 µM; GI50 (IGROV1 ovarian): 12.2 µM; TGI (IGROV1 ovarian): 52.3 µM; GI50 (U251 CNS): 4.08 µM; TGI (U251 CNS): 25 µM; GI50 (DU-145 prostate): 5.07 µM; TGI (DU-145 prostate): 21.3 µM; GI50 (HS 578T breast): 1.95 µM; TGI (HS 578T breast): 8.53 µM; GI50 (COLO 205 colon): 6.94 µM; TGI (COLO 205 colon): > 100 µM; GI50 (CCRF-CEM leukemia): 7.09 µM; TGI (CCRF-CEM leukemia): 68.6 µM; GI50 (SW-620 colon): 6.77 µM; TGI (SW-620 colon): 67.9 µM; GI50 (MDA-MB-435): 9.55 µM; TGI (MDA-MB-435): > 100 µM; GI50 (SF-539 CNS): 6.92 µM; TGI (SF-539 CNS): 27.7 µM; GI50 (UACC-62 melanoma): 5.84 µM; TGI (UACC-62 melanoma): 39 µM; GI50 (UO-31 renal): 13.5 µM; TGI (UO-31 renal): 49.3 µM; GI50 (HOP-92 NSCLC): 2.39 µM; TGI (HOP-92 NSCLC): 8.27 µM; GI50 (SK-MEL-5 melanoma): 6.6 µM; TGI (SK-MEL-5 melanoma): 45.4 µM; GI50 (HCT-15 colon): 15 µM; TGI (HCT-15 colon): > 100 µM; GI50 (A498 renal): 1.56 µM; TGI (A498 renal): 21.9 µM; GI50 (NCI/ADR-RES ovarian): 10 µM; TGI (NCI/ADR-RES ovarian): 41.3 µM; GI50 (PC-3 prostate): 6.16 µM; TGI (PC-3 prostate): 29.9 µM; GI50 (SF-268 CNS): 7.58 µM; TGI (SF-268 CNS): 35.8 µM; GI50 (NCI-H522 lung): 6.06 µM; TGI (NCI-H522 lung): 52.1 µM; GI50 (BT-549 breast): 7.11 µM; TGI (BT-549 breast): 29.7 µM; GI50 (OVCAR-4 ovarian): 2.99 µM; TGI (OVCAR-4 ovarian): 14.1 µM; GI50 (RXF 393 renal): 6.78 µM; TGI (RXF 393 renal): 24.2 µM; GI50 (HCT-116 colon): 5.01 µM; TGI (HCT-116 colon): > 100 µM; GI50 (HT29 colon): 6.24 µM; TGI (HT29 colon): > 100 µM; GI50 (KM12 colon): 16.5 µM; TGI (KM12 colon): > 100 µM; GI50 (HOP-62 NSCLC): 3.6 µM; TGI (HOP-62 NSCLC): 19.5 µM; GI50 (MCF7 breast): 5.62 µM; TGI (MCF7 breast): > 100 µM; GI50 (CAKI-1 renal): 21.7 µM; TGI (CAKI-1 renal): > 100 µM; GI50 (SNB-75 CNS): 1.72 µM; TGI (SNB-75 CNS): 4.88 µM; GI50 (SR leukemia): 2.09 µM; TGI (SR leukemia): 7.57 µM; GI50 (T-47D breast): 2.83 µM; TGI (T-47D breast): 26.5 µM; GI50 (OVCAR-3 ovarian): 10.7 µM; TGI (OVCAR-3 ovarian): 35 µM; GI50 (SK-OV-3 ovarian): 9.09 µM; TGI (SK-OV-3 ovarian): 40.6 µM; GI50 (A549 NSCLC): 6.07 µM; TGI (A549 NSCLC): 47.1 µM; GI50 (RPMI-8226 leukemia): 10.7 µM; TGI (RPMI-8226 leukemia): 56.6 µM; GI50 (M14 melanoma): 11.3 µM; TGI (M14 melanoma): > 100 µM; GI50 (SN12C renal): 11.3 µM; TGI (SN12C renal): > 100 µM; GI50 (MOLT-4 leukemia): 12.9 µM; TGI (MOLT-4 leukemia): 53.1 µM; GI50 (SK-MEL-28 melanoma): 5.17 µM; TGI (SK-MEL-28 melanoma): 28.6 µM; GI50 (ACHN renal): 4.95 µM; TGI (ACHN renal): 62.6 µM; GI50 (LOX IMVI melanoma): 3.3 µM; TGI (LOX IMVI melanoma): 13.2 µM; GI50 (OVCAR-5 ovarian): 22.5 µM; TGI (OVCAR-5 ovarian): > 100 µM; GI50 (MDA-MB-231 breast): 5.39 µM; TGI (MDA-MB-231 breast): 41.1 µM; GI50 (SNB-19 CNS): 5.97 µM; TGI (SNB-19 CNS): 45.5 µM; GI50 (OVCAR-8 ovarian): 8.56 µM; TGI (OVCAR-8 ovarian): > 100 µM; GI50 (HCC-2998 colon): 20.7 µM; TGI (HCC-2998 colon): > 100 µM; GI50 (786-0 renal): 12.5 µM; TGI (786-0 renal): 42.7 µM; GI50 (MALME-3M melanoma): 2.76 µM; TGI (MALME-3M melanoma): 8.77 µM; GI50 (TK-10 renal): 4.78 µM; TGI (TK-10 renal): 22.9 µM
